In patent US20090093501A1, “Heterocyclic antiviral compounds” (Roche Palo Alto LLC, priority 2007, published 2009):

What was measured:
CCR5 = target: T1, CCR5 (Homo sapiens, UniProt P51681); assay: CCR5-mediated cell-cell fusion (CCF) assay; format: cell-based; details: Hela-R5 cells co-cultured with CEM-NKr-CCR5-Luc cells, 24 hrs, luciferase readout
T1 construct: host or cells: CEM-NKr-CCR5-Luc cells, co-cultured with Hela-R5 cells expressing gp160 and HIV-1 Tat
Procedure: CCF assay was performed as described before (C. Ji, J. Zhang, N. Cammack and S. Sankuratri, J. Biomol. Screen. 2006 11(6):652-663). Hela-R5 cells (express gp160 from R5-tropic virus and HIV-1 Tat) were plated in 384 well white culture plates (BD Bioscience, Palo Alto, Calif.) at 7.5×10^3 cells per well in phenol red-free Dulbecco's Modified Eagle Medium (DMEM) supplemented with 10% FBS, 1× Pen-Strep, 300 μg/mL G418, 100 μg/mL hygromycin, and 1 μg/mL Doxycycline (Dox) (BD Bioscience, Palo Alto, Calif.), using Multimek (Beckman, Fullerton, Calif.) and incubated at 37° C. overnight to induce the expression of gp160. Ten μL diluted compounds in medium containing 5% DMSO were added to the cells, followed by the addition of CEM-NKr-CCR5-Luc (obtained from NIH AIDS Research & Reference Reagents Program) that expresses CD4 and CCR5 and carries a […] long terminal repeat (LTR)-driven luciferase reporter gene at 1.5×10^4 cells/15 μL/well and incubated for 24 hrs. At the end of co-culture, 15 μL of Steady-Glo luciferase substrate was added into each well, and the cultures were sealed and gently shaken for 45 min. The luciferase activity were measured for 10 sec per well as luminescence by using 16-channel TopCount NXT (PerkinElmer, Shelton, Conn.) with 10 min dark adaptation and the readout is count per second (CPS). For the drug interaction experiments, small molecule compounds or antibodies were serially diluted in serum-free and phenol red-free RPMI containing 5% DMSO (CalBiochem, La Jolla, Calif.) and 1× Pen-Strep5 μL each of the two diluted compound or mAb to be tested for drug-drug interactions were added to the Hela-R5 cells right before the addition of target cells. Representative results are compiled in TABLE II

T1 sequence (P51681 whole entry, the tested form may be a part): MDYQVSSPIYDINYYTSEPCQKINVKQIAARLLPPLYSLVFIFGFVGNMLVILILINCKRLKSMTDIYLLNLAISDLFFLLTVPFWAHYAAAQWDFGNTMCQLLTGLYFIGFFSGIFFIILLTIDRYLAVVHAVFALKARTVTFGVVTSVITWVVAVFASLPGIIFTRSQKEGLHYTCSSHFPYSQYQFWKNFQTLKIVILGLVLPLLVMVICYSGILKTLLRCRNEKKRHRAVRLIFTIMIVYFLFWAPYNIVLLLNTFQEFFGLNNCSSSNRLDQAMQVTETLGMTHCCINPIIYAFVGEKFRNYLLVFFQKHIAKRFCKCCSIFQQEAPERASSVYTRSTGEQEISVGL

IC50 (CCR5) | melting point | SMILES
9.5 nM |  | CCCCC1C(=O)N(CC2CCOCC2)CCC12CCN(C1(C)CCN(C(=O)c3c(C)ncnc3C)CC1)CC2 (stereo not shown) [I-3, 1-Butyl-9-[1-(4,6-dimethyl-pyrimidine-5-carbonyl)-4-methyl-piperidin-4-yl]-3-(tetrahydro-pyran-4-ylmethyl)-3,9-diaza-spiro[5.5]undecan-2-one]
9.8 nM | 113 to 120 °C | CCCCC1CN(S(=O)(=O)C2CCN(C(C)=O)CC2)CCC12CCN(C1(C)CCN(C(=O)c3c(C)ncnc3C)CC1)CC2 (stereo not shown) [I-25]
7.8 nM |  | CCCCC1C(=O)N(CC2CCN(C(=O)OC)CC2)CCC12CCN(C1(C)CCN(C(=O)c3c(C)ncnc3C)CC1)CC2 (stereo not shown) [I-19, 4-{1-Butyl-9-[1-(4,6-dimethyl-pyrimidine-5-carbonyl)-4-methyl-piperidin-4-yl]-2-oxo-3,9-diaza-spiro[5.5]undec-3-ylmethyl}-piperidine-1-carboxylic acid methyl ester]
